The test system of data set [1] is Escherichia coli ATCC 25922. The data set can be described thus: in vitro bacteria attachment assay on coated mesh discs in SST medium. The format is cell-based. To be noted: treated mesh surface, serum containing media. The procedure: Taurolidine was dissolved at 4% wt./vol. in a 70% acetone 30% water vol./vol. mixture. Protamine sulfate was dissolved at 10% wt./vol. in water under warming. 50 μl of the taurolidine (TU) solution and 20 μl of the protamine (PS) solution were applied to each mesh disk using a pipette and allowed to dry at 50° C. until the majority of the liquid was gone and then stored under vacuum. First the taurolidine solution was applied, and then immediately thereafter the protamine sulfate solution was applied. The in vitro bacteria attachment assay was developed for its utility of indicating biofilm prevention potential of prototype mesh. Since bacterial attachment to a surface is the first step of biofilm formation, a surface treatment that inhibits bacterial attachment would reduce the chance of subsequent biofilm formation. The assay was conducted in SST (Serum Saline TSB) medium to mimic in vivo and clinical conditions. The formulation of SST is Tryptic Soy Broth (TSB):serum:saline in the ratio of 1:2:7. Each test article was incubated in SST inoculated with Staphylococcus aureus ACTT 6538 or Escherichia coli ATCC 25922 at about 6 Log CFU/ml. […] Viable bacteria populations were measured by plate count on TSA (Tryptic Soy agar) medium contain neutralizing agents. […]

Data set [2] has as its system Staphylococcus aureus ACTT 6538. Described as above. The settings on record: for Log reduction: 4 hours SST 37° C. It counts as cell-based. The procedure:
Taurolidine was dissolved at 4% wt./vol. in a 70% acetone 30% water vol./vol. mixture. Protamine sulfate was dissolved at 10% wt./vol. in water under warming. 50 μl of the taurolidine (TU) solution and 20 μl of the protamine (PS) solution were applied to each mesh disk using a pipette and allowed to dry at 50° C. until the majority of the liquid was gone and then stored under vacuum. First the taurolidine solution was applied, and then immediately thereafter the protamine sulfate solution was applied. The in vitro bacteria attachment assay was developed for its utility of indicating biofilm prevention potential of prototype mesh. Since bacterial attachment to a surface is the first step of biofilm formation, a surface treatment that inhibits bacterial attachment would reduce the chance of subsequent biofilm formation. The assay was conducted in SST (Serum Saline TSB) medium to mimic in vivo and clinical conditions. The formulation of SST is Tryptic Soy Broth (TSB):serum:saline in the ratio of 1:2:7. Each test article was incubated in SST inoculated with Staphylococcus aureus ACTT 6538 or Escherichia coli ATCC 25922 at about 6 Log CFU/ml. After incubation with rotation of 60 rpm for 4 hours at 37° C., the mesh discs were washed in saline 3 times to remove unattached bacteria. Bacteria attached to the mesh were collected by sonication in saline with neutralizing agent. Viable bacteria populations were measured by plate count on TSA (Tryptic Soy agar) medium contain neutralizing agents. The use of neutralizing agents in bacteria suspension and plate count medium was to eliminate any carry over antimicrobial effect from the coating. The plates were incubated at 37° C. for 24 hours. The number of attached viable bacteria was reported as CFU/disc. In accordance with Example 1, surgical mesh discs coated with different stand alone and combinations of taurolidine+protamine sulfate were prepared. Protocols of mesh coating and in vitro attachment assay as in Example 1 were used for this Example 3.

Another data set deals with S. aureus ACTT 6538. Kind of data set: bactericidal two-dimensional concentration matrix of TU and PS in SST medium, plate count. The format is cell-based, Staphylococcus aureus. To be noted: TU alone at 100 ppm, 37° C. 24 hours. How it is done: Concentration gradients of TU and PS were diluted in an SST medium and made into a two-dimensional matrix. Bacteria of interest were inoculated to the matrix at about 10e6 CFU/ml. S. aureus ACTT 6538 or E. coli ATCC 25922 were used for this Example 2. After incubation at 37° C. for 24 hours, viable bacteria populations were measured by plate count. Log reduction (LR) was used as the end point for efficacy and was defined as: Log CFU/ml of untreated control−Log CFU/ml of treated. Synergistic index (SI) was defined as LR of a given combination−sum of LR of single component at the same concentration as in the combination. SI=0 indicated additive effect, SI=1, indicated 90% more bacterial cedality, SI=2 indicated 99% more bacterial cedality, SI=3, indicated 99.9% more bacterial cedality, etc., by combination than its stand alone compositions at the same usage, thus synergy.

Data set [3] has as its system Staphylococcus aureus ACTT 6538. The data set can be described thus: in vitro MBC (minimum bactericidal concentration) study of PS:TU ratios in SST medium. It counts as cell-based. The procedure:
The range of the ratios of the components of the synergistic antimicrobial compositions of the present invention was obtained by an in vitro MBC (minimum bactericidal concentration) study. The study was conducted in SST medium inoculated with about 10^6 CFU/ml Staphylococcus aureus ACTT 6538. In vitro efficacy was evaluated for different ratios of PS and TU combinations along with the stand alone (i.e., individual) compositions at the same concentrations as in the combination composition. After incubation at 37° C. for 24 hours, viable bacteria populations were measured by plate count. Log reduction (LR) was used as the end point for efficacy and was defined as Log CFU/ml of untreated control−Log CFU/ml of treated. The synergistic index (SI) was defined as the LR of a given combination−sum of LR of single component at the same concentration as in the combination. An SI=0 indicated additive effect, SI=1, indicated 90% more bacterial cedality, SI=2 indicated 99% more bacterial cedality, SI=3, indicated 99.9% more bacterial cedality, etc., by a combination than its stand alone components at the same usage, thus synergy.

For data set [4] the following is noted: cited from earlier work.

The structures appear in SMILES notation.

We go through one compound from patent publication US9220814B2, “Broad-spectrum antimicrobial compositions based on combinations of taurolidine and protamine and medical devices containing such compositions” (Ethicon, Inc., priority 2011, dated 2015).

Consider `O=S1(=O)CCN(CN2CCS(=O)(=O)NC2)CN1` [TU, bis(1,1-dioxoperhydro-1,2,4-thiadiazinyl-4)-methane], for which the “inhibition of attachment by E. coli (in words)” value in data set [1] is given as “less inhibition than the combination”. Besides, the Log reduction was determined as 1 in data set [2] (TU 500 μg/disc alone), 0.8 in data set [2] (TU 1000 μg/disc alone) and 2 in data set [2] (TU 2000 μg/disc alone). For the same compound, the “inhibition of attachment by S. aureus (in words)” value in data set [2] (treated mesh surface, serum containing media) is given as “less inhibition than the combination”. In addition, the “Log reduction (LR)” value in the data set on S. aureus ACTT 6538 is given as 0. Moreover, the LR-TU in data set [3] (TU alone at same concentration as in PS:TU 1:1), in data set [3] (TU alone at same concentration as in PS:TU 1:10), in data set [3] (TU alone at same concentration as in PS:TU 1:50), in data set [3] (TU alone at same concentration as in PS:TU 1:100), in data set [3] (TU alone at same concentration as in PS:TU 1:200) and in data set [3] (TU alone at same concentration as in PS:TU 10:1) was 0 in each case. In addition, in data set [3] (TU alone at same concentration as in PS:TU 50:1), the LR-TU is on record as 0. The “safe and well tolerated cumulative dose” value in data set [4] (cumulative doses) was “exceeding 300 g”. Further, the “safe and well tolerated systemic dose” value in data set [4] (systemic doses) is listed as “exceeding 40 g/day”.
